The data set is described as follows: in vitro. The settings on record: human, hela cells, % viability.

As usually defined, the viability is a read-out of living cells in per cent, often relative to untreated cells. For the molecule `O=C1CCC(=O)N1CCn1c(=O)n(C(=O)CCC2CCCC2)c2ccccc21` [CBK106495], the viability at 28.5 h, 10 µM came to 96.8%.
As to `CC(C)Cn1cnc(S(=O)(=O)N2CCC(OCc3ccncc3)C2)c1` (stereo not drawn) [CBK305456], the viability at 28.5 h, 10 µM worked out at 105%.
Same read-out and setting: the same measure for `CSc1ccc(C(NC(=O)OC(C)(C)C)C(=O)O)cc1` (stereo not drawn) [CBK287196]: 80.4%.
On to `O=c1cc(C(F)(F)F)c2ccc(OCc3ccc(Cl)cc3)cc2o1` [CBK058200], for which the viability at 28.5 h, 10 µM was 93%.
For `COc1cc(-c2cncc(NC(C)CCCC(C)(C)O)n2)cc(OC)c1OC` (stereo not drawn) [CBK065481], the viability at 28.5 h, 10 µM amounted to 102%.
The same measure, in the same setting: the same measure for `O=C(c1cc(F)c(F)cc1F)N1CCC2(CCCN(C/C=C/c3ccccc3)C2)C1` (stereo not drawn) [CBK132001]: 107%.
Regarding `COc1cccc(-c2ccc(C(=O)NCCNC(C)=O)c(N3CCOCC3)n2)c1` [CBK076465], the viability at 28.5 h, 10 µM worked out at 86.3%.
`Cc1[nH]c2cccc(C(=O)N3CCCCC3CCNC(=O)c3ccccc3)c2c1C` (stereo not drawn) [CBK285976]: the viability at 28.5 h, 10 µM was determined as 82%.
Same read-out and setting: the same measure for `CC(=O)c1sc2nc(C)cc(C)c2c1N` [CBK131882]: 90.5%.
The same measure, in the same setting: the same measure for `CCOC(=O)C1CC1CN1CCN(S(=O)(=O)c2ccc(OCC)c3ncccc23)CC1` (stereo not drawn) [CBK062785]: 92.9%; for `c1cc(-c2nccnc2OCCn2ccnc2)ccn1` [CBK106737]: 87%; for `Fc1ccc(CN2CC3CCCC(C2)C3N2CCOCC2)cc1F` (stereo not drawn) [CBK282270]: 95.8%.
`COCCCNC(=O)Cn1cccc2cc(-c3ccc(F)cc3)nc1-2` [CBK284834]: the viability at 28.5 h, 10 µM came out at 93.4%.
Regarding `CN(Cc1cnn(C)c1)C(=O)c1ccc(Br)cc1O` [CBK305742], the viability at 28.5 h, 10 µM was 104%.
As to `CCC(c1cccc(OC)c1)N(C)C(=O)CC1CCN(c2nc(C)cc(C)n2)CC1` (stereo not drawn) [CBK286255], the viability at 28.5 h, 10 µM turned out to be 99.7%.
With `O=C(N[C@H]1CCN(Cc2ccccc2)C1)c1cnc(-c2ccccc2)c(-c2ccncc2)c1` [CBK036639], the viability at 28.5 h, 10 µM stood at 84.7%.
Take `CC(=O)c1ccc(NC(=O)c2cccc(S(=O)(=O)N3CCCCC3)c2)cc1` [CBK263246]: the viability at 28.5 h, 10 µM worked out at 96.4%.
On to `O=[N+]([O-])c1ccc2c(c1)COC1(CCNCC1)O2` [CBK116644], for which, under “bulk resorufin, single well”, the viability at 28.5 h, 10 µM amounted to 83.7%.
In the case of `Cc1ccc(SCc2ccc(C(=O)NCCN3CCOCC3)cc2)cc1` [CBK269314], the viability at 28.5 h, 10 µM came to 98.7%.
Take `Oc1ccc(Nc2ccnc3cc(Cl)ccc23)cc1` [CBK012365C]: the viability at 28.5 h, 10 µM was found to be 93.5%.
`CC(C)(C)n1cc(NC2CCN(c3ccc(C#N)cc3)C2=O)cn1` (stereo not drawn) [CBK306445]: the viability at 28.5 h, 10 µM is 85.7%.
Regarding `CC(NC(=O)CCc1cnn(C)c1)c1nc(-c2ccncc2)cs1` (stereo not drawn) [CBK305496], the viability at 28.5 h, 10 µM was 91.4%.
With `O=C(Oc1ccc(N(C(=O)c2ccncc2)S(=O)(=O)c2cccs2)cc1)c1ccncc1` [CBK265619], the viability at 28.5 h, 10 µM was 98.7%.
On to `CN(CP(=O)(O)CCc1ccccc1)S(C)(=O)=O` [CBK263068], for which the viability at 28.5 h, 10 µM amounted to 95.1%.
As to `CN1Cc2nc[nH]c2C[C@H]1C(=O)NCc1ccco1` [CBK288979], the viability at 28.5 h, 10 µM came out at 88%.
For `COc1ccc(C(C)NC(=O)c2c3c(nn2C)CCCC3)cc1F` (stereo not drawn) [CBK281406], the viability at 28.5 h, 10 µM is 106%.
`COCCCn1c(=O)[nH]c2ncc(-c3ccco3)nc21` [CBK064449]: the viability at 28.5 h, 10 µM came to 99.2%.
Turning to `CSc1ccc(NS(=O)(=O)c2ccc(NC(C)=O)c(Cl)c2)cc1` [CBK043566], the viability at 28.5 h, 10 µM came out at 108%.
Consider `CCOC(=O)c1cc2c3ccccc3n(CC)c2nc1N` [CBK100822], for which the viability at 28.5 h, 10 µM stood at 94%.
Turning to `Cc1c(Cl)cccc1S(=O)(=O)Nc1ccsc1C(=O)O` [CBK004549], the viability at 28.5 h, 10 µM came to 97.7%.
Turning to `CC(C)(CNC(=O)c1ccc(=O)n(CC(=O)NC2CCCCC2)c1)c1ccccc1F` [CBK285983], the viability at 28.5 h, 10 µM was 90.7%.
For the molecule `Fc1ccc(OCCNCCC2NCCc3c2[nH]c2ccccc32)cc1` (stereo not drawn) [CBK066970], the viability at 28.5 h, 10 µM was determined as 97.6%.
Take `CCCOc1ccc(C2(CCCCN3CCCC3)C(=O)Oc3ccc(C(C)(C)C)cc32)cc1` (stereo not drawn) [CBK017655C]: the viability at 28.5 h, 10 µM turned out to be 99.1%.
With `CCN(CC)CCSc1nc(O)c(Cc2ccccc2)c(=O)[nH]1` [CBK072486], the viability at 28.5 h, 10 µM came to 88.9%.
With `O=C(N/N=C/c1c[nH]c2ccccc12)c1cc(-c2ccc3ccccc3c2)[nH]n1` [CBK262885], the viability at 28.5 h, 10 µM turned out to be 54.8%.
In the case of `OCCN1CCN(C(c2ccccc2)c2sc3ncnn3c2O)CC1` (stereo not drawn) [CBK287611], the viability at 28.5 h, 10 µM was 82.5%.
Same read-out and setting: the same measure for `O=C(COc1ccccc1)NCC1(c2ccccc2)CCOCC1` [CBK067407]: 103%.
In the case of `Cc1cccc(-c2nnc(SCC3CC3)n2CC2CCCCC2)c1` [CBK085423], the viability at 28.5 h, 10 µM amounted to 87.7%.
Still for that read-out and setting: the value for `C(=N\N=C\c1ccccn1)/c1ccccn1` [CBK015627] was 89%; that for `CN(C)CC(=O)N1CCc2nc(-c3cccc(F)c3)sc2C1` [CBK281801] was 106%.
Same read-out and setting: the same measure for `N#Cc1cc(CN2CCCN(S(=O)(=O)c3ccc(C(=O)c4ccccc4)cc3)CC2)ccc1F` [CBK062768]: 109%; for `COc1ccccc1-c1nccnc1OCCC(C)C` [CBK106818]: 109%; for `Nc1nc(CSc2nnc(-c3ccco3)n2-c2ccccc2)cs1` [CBK269693]: 97.9%.
Turning to `Cc1cccc(CN(CC(=O)Nc2ccc(F)cc2F)S(=O)(=O)c2ccc(Cl)cc2)c1` [CBK265164], the viability at 28.5 h, 10 µM turned out to be 84.9%.
Regarding `Cn1c(=O)c2c(nc(N3CCN(c4cccc(Cl)c4)CC3)n2CC(=O)O)n(C)c1=O` [CBK286803], the viability at 28.5 h, 10 µM was 87.7%.
On to `O=C(CCSc1nc(-c2ccco2)cc(C(F)(F)F)n1)Nc1ccc2c(c1)OCO2` [CBK267627], for which the viability at 28.5 h, 10 µM was 104%.
As for `COc1cccc2ncn(CCCn3ccnn3)c(=O)c12` [CBK306650], the viability at 28.5 h, 10 µM amounted to 103%.
Regarding `COC(=O)CCc1sc(NC(=O)CSCC(=O)O)nc1-c1ccc(OC)cc1` [CBK296116], the viability at 28.5 h, 10 µM amounted to 93.6%.
For `CN(CCN(C)/N=C/c1c2ccccc2cc2ccccc12)/N=C/c1c2ccccc2cc2ccccc12` [CBK262039], the viability at 28.5 h, 10 µM came to 94.8%.
The same measure, in the same setting: the same measure for `O=C(O)Cn1c(=O)n(CC(=O)O)c2ccccc21` [CBK263550]: 83%; for `Cc1nn(C)cc1CN(Cc1cccc(F)c1)CC1CCCO1` (stereo not drawn) [CBK283013]: 100%; for `COCCNc1nc(-c2ccccc2OC)ccc1C(=O)N1CCN(C)CC1` [CBK105950]: 88.7%.
In the case of `Cc1[nH]c2ccccc2c1C(=O)CSc1nnc(N)s1` [CBK266328], the viability at 28.5 h, 10 µM is 102%.
The same measure, in the same setting: the value for `CC[C@H]1CN(C(=O)NC(C)C)CC[C@H]1CC(=O)NCc1ccc2c(c1)OCO2` [CBK288775] was 97.9%; that for `O=C(CSc1nc(O)c2c(-c3ccccc3)csc2n1)NCCc1ccccc1` [CBK268077] was 97.2%.
With `O=C(CN1C(=O)S/C(=C\c2ccc(Cl)cc2)C1=O)Nc1cc([N+](=O)[O-])ccc1O` [CBK262396], the viability at 28.5 h, 10 µM amounted to 90.4%.
As for `COc1cnc(-c2ccccc2OC)c(NC(=O)c2ccccc2)n1` [CBK145261], the viability at 28.5 h, 10 µM was found to be 101%.
On the same count and under the same terms, the same measure for `COc1ccc2[nH]cc(CCNC(=O)c3cc(C)[nH]n3)c2c1` [CBK116206]: 89.8%; for `COc1cc(/C=N/n2c(S)nnc2-c2cccnc2)ccc1OCc1ccccc1` [CBK265307]: 110%.
`O=C1N[C@]2(Cc3ccccc31)CN(Cc1ccccc1)C[C@H]2CO` [CBK284743]: the viability at 28.5 h, 10 µM was found to be 92.1%.
As for `CCn1cc(CN2CCCN(C(=O)c3cccn(C)c3=O)CC2)cn1` [CBK305375], the viability at 28.5 h, 10 µM was 106%.
Consider `O=C(CSc1ccc(Cl)cc1)NCCCN1CCOCC1` [CBK009390], for which the viability at 28.5 h, 10 µM was found to be 99.6%.
On the same count and under the same terms, the value for `Cc1cc(C[C@@H]2COC[C@H]2NCCc2ccccc2)on1` [CBK284882] was 95.5%.
As to `CCCOc1ccc(-c2cn(CC(=O)NN)cn2)cc1` [CBK261790], the viability at 28.5 h, 10 µM turned out to be 106%.
The same measure, in the same setting: the same measure for `Cc1cc(C)c2nc(NC(=O)c3ccc(=O)n(CC(=O)N(C)c4ccccc4)c3)sc2c1` [CBK286025]: 91.5%.
For `Cc1cc(=O)oc(-c2ccccc2)c1C#N` [CBK004842], the viability at 28.5 h, 10 µM is 95%.
Same read-out and setting: the same measure for `Cc1nc2nc(-c3ccc(F)cc3F)cn2nc1C` [CBK284564]: 90.3%.
Still for that read-out and setting: the same measure for `CN1CCC(N2CCN(C(=O)C3(c4ccccc4)CCCC3)CC2)CC1` [CBK149096]: 99.3%; for `CC(C)c1cccc(C(C)C)c1OCC(O)CN1CCCCC1` (stereo not drawn) [CBK003079T]: 94.6%.
In the case of `Oc1ccc2ccccc2c1/C=N/Nc1nnc(-c2ccccc2)c(-c2ccccc2)n1` [CBK262005], the viability at 28.5 h, 10 µM came to 91.9%.
On the same count and under the same terms, the same measure for `CC(C)CCN1CCn2nc(CNc3cnccn3)cc2C1` [CBK307540]: 85.8%; for `CCNC(=O)Nc1nc2cccnc2cc1-c1ccc(OC)c(C)c1` [CBK081241]: 94.6%.
As for `O=C(NCc1cccc2ccccc12)N1CCCC(CO)C1` (stereo not drawn) [CBK156035], the viability at 28.5 h, 10 µM stood at 112%.
On to `CCC(c1ccc(F)cc1F)N1CCN(Cc2nc(C)no2)CC1` (stereo not drawn) [CBK304032], for which the viability at 28.5 h, 10 µM amounted to 103%.
On to `O=C(Nc1ccc2ncccc2c1)c1cccc(F)c1Cl` [CBK159800], for which the viability at 28.5 h, 10 µM turned out to be 85.9%.
In the case of `Cc1ccc(-c2nnc3s/c(=C\c4ccc([N+](=O)[O-])cc4)c(=O)n23)cc1` [CBK264882], the viability at 28.5 h, 10 µM turned out to be 101%.
Turning to `Fc1ccccc1-c1nc2cnccn2c1NCc1ccco1` [CBK283681], the viability at 28.5 h, 10 µM worked out at 84.9%.
Turning to `CC(Cc1cccs1)NC(=O)C(C)Cn1cccn1` (stereo not drawn) [CBK283250], the viability at 28.5 h, 10 µM worked out at 85.4%.
As for `CN(C)CCCN[C@H]1CC[C@@H](c2ccccc2)CC1` [CBK016465], the viability at 28.5 h, 10 µM was found to be 96.2%.
Regarding `CC(=O)NCCSc1nc2cc(Cl)c(Cl)cc2nc1N1CCCC1` [CBK103701], the viability at 28.5 h, 10 µM was determined as 96.3%.
As for `COc1ccc(C)cc1NC(=O)C1CC(=O)Nc2ncnn21` (stereo not drawn) [CBK270274], the viability at 28.5 h, 10 µM amounted to 99.5%.
